Data as given in PubChem BioAssay AID256 (DTP/NCI, 2004).
Several values for one entry are separate records, joined by “and”; a condition that tells them apart may be missing. Equal values may be shown once. Inconclusive results and toxic doses are left out. The calls were made as follows: active = survival T/C of 150% or more; inactive = T/C below 125% in these data.

Tested on: CD2F1 mice, L1210 leukemia ip, survival T/C
Experiment: NCI In Vivo Anticancer Drug Screen. Data for tumor model L1210 Leukemia (intraperitoneal) in CD2F1 (CDF1) mice
Conditions: higher = longer survival
In short: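 Implant tumor; dose compound or vehicle; measure endpoint in both groups; report treated divided by control.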

[1] = endpoint: mean survival time, dose: 12.5 mg/kg/injection, schedule: Q01DX009 (ip), vehicle: saline with Tween-80
[2] = endpoint: mean survival time, dose: 25.0 mg/kg/injection, schedule: Q01DX009 (ip), vehicle: saline with Tween-80
[3] = endpoint: mean survival time, dose: 50.0 mg/kg/injection, schedule: Q01DX009 (ip), vehicle: saline with Tween-80
[4] = endpoint: mean survival time, dose: 100.0 mg/kg/injection, schedule: Q01DX009 (ip), vehicle: saline with Tween-80
[5] = endpoint: mean survival time, dose: 100.0 mg/kg/injection, schedule: Q04DX003 (ip), vehicle: saline with Tween-80
[6] = endpoint: mean survival time, dose: 200.0 mg/kg/injection, schedule: Q01DX009 (ip), vehicle: saline with Tween-80
[7] = endpoint: mean survival time, dose: 200.0 mg/kg/injection, schedule: Q04DX003 (ip), vehicle: saline with Tween-80
[8] = endpoint: mean survival time, dose: 400.0 mg/kg/injection, schedule: Q01DX009 (ip), vehicle: saline with Tween-80
[9] = endpoint: mean survival time, dose: 400.0 mg/kg/injection, schedule: Q04DX003 (ip), vehicle: saline with Tween-80
[10] = endpoint: mean survival time, dose: 100.0 mg/kg/injection, schedule: Q01DX001 (ip), vehicle: saline with Tween-80
[11] = endpoint: mean survival time, dose: 200.0 mg/kg/injection, schedule: Q01DX001 (ip), vehicle: saline with Tween-80
[12] = endpoint: mean survival time, dose: 100.0 mg/kg/injection, schedule: Q01DX009 (ip), vehicle: saline
[13] = endpoint: mean survival time, dose: 400.0 mg/kg/injection, schedule: Q01DX001 (ip), vehicle: saline with Tween-80
[14] = endpoint: mean survival time, dose: 100.0 mg/kg/injection, schedule: Q01DX001 (ip), vehicle: saline

Measured: T/C

C[CH2][Ge]([CH2]C)[CH2]C.C[CH2][Ge]([CH2]C)[CH2]C.C[CH2][Ge]([CH2]C)[O][Ge]([CH2]C)[CH2]C
inactive: endpoint: mean survival time, dose: 6.25 mg/kg/injection, schedule: Q01DX009 (ip), vehicle: saline with Tween-80 97 % of control and 106 % of control | [1] 96 % of control and 104 % of control | [2] 97 % of control and 112 % of control | [3] 104 % of control and 112 % of control | [4] 109 % of control

CCOC(=O)CCC(NC(=O)OCCNCCCl)C(=O)OCC (stereo unspecified)
inactive: endpoint: mean survival time, dose: 40.0 mg/kg/injection, schedule: Q01DX Z (ip), vehicle: saline 100 % of control | endpoint: mean survival time, dose: 80.0 mg/kg/injection, schedule: Q01DX Z (ip), vehicle: saline 96 % of control | endpoint: mean survival time, dose: 160.0 mg/kg/injection, schedule: Q01DX Z (ip), vehicle: saline 103 % of control | endpoint: mean survival time, dose: 320.0 mg/kg/injection, schedule: Q01DX Z (ip), vehicle: saline 117 % of control

O=C1CSC(=S)N1/N=C/c1ccc(Cl)c([N+](=O)[O-])c1
inactive: [4] 92 % of control | [5] 92 % of control | [6] 100 % of control | [7] 95 % of control | [8] 90 % of control | [9] 86 % of control

O=C(C1=CC=CC1=P(c1ccccc1)(c1ccccc1)c1ccccc1)C(Cl)(Cl)Cl
inactive: [4] 94 % of control | [6] 107 % of control | [8] 107 % of control

O=C1SC(c2ccccc2)=S=C1c1ccccc1
inactive: endpoint: median survival time, dose: 25.0 mg/kg/injection, schedule: Q01DX009 (ip), vehicle: saline with Tween-80 100 % of control | endpoint: median survival time, dose: 50.0 mg/kg/injection, schedule: Q01DX009 (ip), vehicle: saline with Tween-80 105 % of control | endpoint: median survival time, dose: 100.0 mg/kg/injection, schedule: Q01DX009 (ip), vehicle: saline with Tween-80 103 % of control | endpoint: median survival time, dose: 200.0 mg/kg/injection, schedule: Q01DX009 (ip), vehicle: saline with Tween-80 97 % of control | endpoint: median survival time, dose: 400.0 mg/kg/injection, schedule: Q01DX009 (ip), vehicle: saline with Tween-80 101 % of control

NCc1ccc(N)cc1
inactive: endpoint: mean survival time, dose: 75.0 mg/kg/injection, schedule: Q01DX001 (ip), vehicle: saline 98 % of control | endpoint: mean survival time, dose: 150.0 mg/kg/injection, schedule: Q01DX001 (ip), vehicle: saline 95 % of control | endpoint: mean survival time, dose: 300.0 mg/kg/injection, schedule: Q01DX001 (ip), vehicle: saline 96 % of control

C[N+](C)(C)CCC(=O)c1ccc(C(=O)CC[N+](C)(C)C)cc1
inactive: endpoint: mean survival time, dose: 50.0 mg/kg/injection, schedule: Q04DX002 (ip), vehicle: saline 96 % of control | [10] 100 % of control | endpoint: mean survival time, dose: 100.0 mg/kg/injection, schedule: Q04DX002 (ip), vehicle: saline 96 % of control | [11] 94 % of control | endpoint: mean survival time, dose: 200.0 mg/kg/injection, schedule: Q04DX002 (ip), vehicle: saline 96 % of control

CC(=O)C1CCC2C3CC=C4CC(n5ccc(=O)[nH]c5=O)CCC4(C)C3CCC12C (stereo unspecified)
inactive: endpoint: mean survival time, dose: 12.5 mg/kg/injection, schedule: Q04DX003 (ip), vehicle: Klucel (hydroxypropylcellulose) (HPC) 97 % of control | endpoint: mean survival time, dose: 25.0 mg/kg/injection, schedule: Q04DX003 (ip), vehicle: Klucel (hydroxypropylcellulose) (HPC) 101 % of control | endpoint: mean survival time, dose: 50.0 mg/kg/injection, schedule: Q04DX003 (ip), vehicle: Klucel (hydroxypropylcellulose) (HPC) 97 % of control | endpoint: mean survival time, dose: 100.0 mg/kg/injection, schedule: Q04DX003 (ip), vehicle: Klucel (hydroxypropylcellulose) (HPC) 97 % of control | endpoint: mean survival time, dose: 200.0 mg/kg/injection, schedule: Q04DX003 (ip), vehicle: Klucel (hydroxypropylcellulose) (HPC) 92 % of control

Clc1ccc(C(=Cc2ccccc2)c2ccc(Cl)cc2)cc1
inactive: [4] 102 % of control | [5] 90 % of control | [6] 93 % of control | [7] 93 % of control | [8] 96 % of control | [9] 97 % of control

CN1C(=S)c2ccccc2S1(=O)=O
inactive: [12] 96 % of control | endpoint: mean survival time, dose: 200.0 mg/kg/injection, schedule: Q01DX009 (ip), vehicle: saline 96 % of control | endpoint: mean survival time, dose: 400.0 mg/kg/injection, schedule: Q01DX009 (ip), vehicle: saline 102 % of control

Cc1ccc(-n2c(=S)[nH]c3ccccc3c2=O)cc1F
inactive: [10] 92 % of control | [4] 88 % of control | [11] 92 % of control | [6] 88 % of control | [13] 89 % of control | [8] 93 % of control

COc1cc2c3c(c1)/C(=N\NC(N)=S)CCN3CCC2
inactive: [10] 93 % of control | [11] 105 % of control | [13] 93 % of control

O=C(O)CCOc1cc(F)c(F)cc1F
inactive: endpoint: mean survival time, dose: 100.0 mg/kg/injection, schedule: Q04DX002 (ip), vehicle: saline with Tween-80 101 % of control | endpoint: mean survival time, dose: 200.0 mg/kg/injection, schedule: Q04DX002 (ip), vehicle: saline with Tween-80 90 % of control | endpoint: mean survival time, dose: 400.0 mg/kg/injection, schedule: Q04DX002 (ip), vehicle: saline with Tween-80 97 % of control

CC(=O)OCCc1nnnn1C
inactive: [4] 101 % of control | [5] 104 % of control | [6] 104 % of control | [7] 104 % of control | [8] 104 % of control | [9] 101 % of control

CC(=O)CC(=O)c1ccccc1.CC(=O)CC(=O)c1ccccc1.[Cl][Sn][Cl]
inactive: [10] 92 % of control | [11] 100 % of control | [13] 107 % of control

O=C(O)c1cc(Br)c(O)cc1O
inactive: [5] 97 % of control | [7] 97 % of control | [9] 87 % of control

O=C(Nc1c[nH]c(=O)[nH]c1=O)C(Cl)Cl
inactive: endpoint: mean survival time, dose: 100.0 mg/kg/injection, schedule: Q04DX003 (ip), vehicle: other 109 % of control | endpoint: mean survival time, dose: 200.0 mg/kg/injection, schedule: Q04DX003 (ip), vehicle: other 94 % of control

O=C(NCCSC(=O)Nc1ccccc1)Nc1ccccc1
inactive: [4] 95 % of control | [6] 94 % of control | [8] 94 % of control

CCN(CC)CCOC(=O)c1ccc(NC(=O)COc2ccc3ccccc3c2)cc1
inactive: endpoint: mean survival time, dose: 12.5 mg/kg/injection, schedule: Q01DX009 (ip), vehicle: other 98 % of control and 97 % of control | endpoint: mean survival time, dose: 25.0 mg/kg/injection, schedule: Q01DX009 (ip), vehicle: other 97 % of control | endpoint: mean survival time, dose: 50.0 mg/kg/injection, schedule: Q01DX009 (ip), vehicle: other 98 % of control and 93 % of control | endpoint: mean survival time, dose: 100.0 mg/kg/injection, schedule: Q01DX009 (ip), vehicle: other 94 % of control and 93 % of control | endpoint: mean survival time, dose: 200.0 mg/kg/injection, schedule: Q01DX009 (ip), vehicle: other 97 % of control and 93 % of control

CC(Cl)(C(Cl)Cl)C(F)(F)F (stereo unspecified)
inactive: endpoint: mean survival time, dose: 25.0 mg/kg/injection, schedule: Q01DX001 (ip), vehicle: saline 102 % of control | endpoint: mean survival time, dose: 25.0 mg/kg/injection, schedule: Q01DX009 (ip), vehicle: saline 98 % of control | endpoint: mean survival time, dose: 50.0 mg/kg/injection, schedule: Q01DX001 (ip), vehicle: saline 107 % of control | endpoint: mean survival time, dose: 50.0 mg/kg/injection, schedule: Q01DX009 (ip), vehicle: saline 98 % of control | [14] 104 % of control and 108 % of control | [12] 98 % of control

CC(=O)OC1C=CS(=O)(=O)C1 (stereo unspecified)
inactive: [5] 108 % of control | [7] 103 % of control | [9] 105 % of control

COCCCNC1=C(C#N)C(=O)NC(c2cccc([N+](=O)[O-])c2)S1 (stereo unspecified)
inactive: [1] 94 % of control | [2] 96 % of control | [3] 96 % of control | [4] 100 % of control | [6] 102 % of control | [8] 103 % of control

O=S1(=O)CC2(N3CCOCC3)CCCCC21 (stereo unspecified)
inactive: endpoint: mean survival time, dose: 100.0 mg/kg/injection, schedule: Q04DX003 (ip), vehicle: saline 100 % of control | endpoint: mean survival time, dose: 200.0 mg/kg/injection, schedule: Q04DX003 (ip), vehicle: saline 102 % of control | endpoint: mean survival time, dose: 400.0 mg/kg/injection, schedule: Q04DX003 (ip), vehicle: saline 104 % of control

NN(C(=O)c1ccccc1)c1ccccc1
inactive: [4] 98 % of control | [5] 95 % of control | [7] 97 % of control | [9] 100 % of control

CN=C1N[N+]2=CCCCC2S1 (stereo unspecified)
inactive: endpoint: mean survival time, dose: 25.0 mg/kg/injection, schedule: Q04DX003 (ip), vehicle: saline 94 % of control | endpoint: mean survival time, dose: 50.0 mg/kg/injection, schedule: Q04DX003 (ip), vehicle: saline 94 % of control

O=c1[nH]c(=O)n(C2CCOC2)cc1Br (stereo unspecified)
inactive: [14] 103 % of control | endpoint: mean survival time, dose: 200.0 mg/kg/injection, schedule: Q01DX001 (ip), vehicle: saline 100 % of control | endpoint: mean survival time, dose: 400.0 mg/kg/injection, schedule: Q01DX001 (ip), vehicle: saline 103 % of control
